Measurements from patent US10844038B2, “1,2-dithiolane compounds useful in neuroprotection, autoimmune and cancer diseases and conditions” (SABILA BIOSCIENCES LLC, priority 2016, dated 2020).
Like-named read-outs stand apart in the source and are kept apart here.

Key:
[1] = biological target: T1, MEK5 (Homo sapiens (Human), UniProt Q13163); assay: KINOMEscan competition binding assay (Kd)
Description: (§1) KINOMEscan™ is based on a competition binding assay that quantitatively measures the ability of a test compound of the invention to compete with an immobilized, active-site directed ligand. The Kinase assay is performed by combining three components: DNA-tagged kinase; immobilized ligand; and a test compound. The ability of the test compound to compete with the immobilized ligand is measured via quantitative PCR of the DNA tag.
(§2) For most assays, kinase-tagged T7 phage strains were prepared in an E. coli host derived from the BL21 strain. E. coli were grown to log-phase and infected with T7 phage and incubated with shaking at 32° C. until lysis. The lysates were centrifuged and filtered to remove cell debris. The remaining kinases were produced in HEK-293 cells and subsequently tagged with DNA for qPCR detection. Streptavidin-coated magnetic beads were treated with biotinylated small molecule ligands for 30 minutes at room temperature to generate affinity resins for kinase assays. The liganded beads were blocked with excess biotin and washed with blocking buffer (SeaBlock (Pierce), 1% BSA, 0.05% Tween 20, 1 mM DTT) to remove unbound ligand and to reduce nonspecific binding. […] All reactions were performed in polystyrene 96-well plates in a final volume of 0.135 ml. […] The kinase concentration in the eluates was measured by qPCR.

[2] = biological target: mTOR (Homo sapiens (Human), UniProt P42345); assay: KINOMEscan competition binding assay (Kd); details: read-out: Kd Values Against mTOR Kinase: mTOR
Description: as §1, §2

[3] = biological target: MEK1 (Homo sapiens (Human), UniProt Q02750); assay: KINOMEscan competition binding assay (Kd); details: read-out: Kd Values Against MEK Kinases Isoforms: MEK1
Description: as §1, §2

[4] = biological target: HER4 (Homo sapiens (Human), UniProt Q15303); assay: Radioisotope filter binding assay; type: biochemical; details: read-out: IC50 Activity Levels Against RTKs (c-Kit, RET, HER4) and AurA, CHK2 Kinases: HER4
Description: (§3) 3. Radioisotope Filter Binding Assay:
(§4) In this assay format, it directly detects the true product without the use of modified substrates or coupling enzymes (Uitdehaag, J. C., et al. Br. J. Pharmacol. 2012, 166, 858-876; Hastie, C. J., et al. Nat. Protoc. 2006, 1, 968-971) according to equation 1. Substrate+[γ−^33P]−ATP→^33P-Substrate+ADP eq 1
(§5) The protocol calls for test compound of the invention to be incubated with kinase, substrate, cofactors, and radio-isotope-labeled ATP (^33P-gamma-ATP). The reaction mixtures are then spotted onto filter papers which bind the radioisotope labeled catalytic product. Unreacted phosphate is removed via washing. The reagents used include base reaction buffer; 20 mM Hepes (pH 7.5), 10 mM MgCl2, 1 mM EGTA, 0.02% Brij35, 0.02 mg/ml BSA, 0.1 mM Na3VO4, 2 mM DTT, 1% DMSO. The reaction procedure include the following steps: (1) prepare indicated substrate in freshly prepared base reaction buffer, (2) deliver any required cofactors to the substrate solution above, (3) deliver indicated kinase into the substrate solution and gently mix, (4) deliver compounds in DMSO into the kinase reaction mixture by Acoustic technology (Echo550; nanoliter range), incubate for 20 minutes at room temperature, (5) deliver ^33P-ATP (specific activity 10 μCi/μL) into the reaction mixture to initiate the reaction, (6) incubate kinase reaction for 2 hours at room temperature, (7) reactions are spotted onto P81 ion exchange paper, (8) detect kinase activity by filter-binding method.

[5] = biological target: KDR/VEGFR2 (Homo sapiens (Human), UniProt P35968); assay: Radioisotope filter binding assay; type: biochemical; details: read-out: IC50 Activity Levels Against MAPK Pathway Kinases: KDR/VEGFR2
Description: as §3, §4, §5

[6] = biological target: RET (Homo sapiens (Human), UniProt P07949); assay: Radioisotope filter binding assay; type: biochemical; details: read-out: IC50 Activity Levels Against RTKs (c-Kit, RET, HER4) and AurA, CHK2 Kinases: RET
Description: as §3, §4, §5

[7] = biological target: FGR (Homo sapiens (Human), UniProt P09769); assay: Rabbit reticulocyte lysate assay (KinaseSeeker competition binding); details: read-out: IC50 Activity Levels Against SRC Family Kinases: FGR
Description: (§6) 1. Rabbit Reticulocyte Lysate Assay Design:
(§7) KinaseSeeker is a homogeneous competition binding assay where the displacement of an active site dependent probe by an inhibitor is measured by a change in luminescence signal. Luminescence readout translates into a highly sensitive and robust assay with low background and minimal interference from test compounds.
(§8) 10 mM stock solutions of test compounds were serially diluted in DMSO to make assay stocks. Prior to initiating IC50 determinations, the test compounds were evaluated for false positive against split-luciferase.
(§9) Each test compound was screened in duplicate against target kinase at 7 different concentrations. For kinase assays, Cfluc-kinase was translated along with Fos-Nfluc using a cell-free system (rabbit reticulocyte lysate) at 30° C. for 90 min. 24 uL aliquot of this lysate containing either 1 uL of DMSO (for no-inhibitor control) or compound solution in DMSO was incubated for 30 minutes at room temperature followed by 1 hour in presence of a kinase specific probe. 80 uL of luciferin assay reagent was added to each solution and luminescence was immediately measured on a luminometer.
(§10) The % Inhibition and % Activity Remaining was calculated using the following equation: % Inhibition=[(ALUControl−ALUSample)/ALUControl]×100 % Activity Remaining=100−% Inhibition
(§11) The % Activity was plotted against compound concentration and the IC50 was determined for each compound using a 7-point curve (Jester, B. W.; et. al. J. Am. Chem. Soc. 2010, 132, 11727-11735. Jester, B. W., et. al. J. Med. Chem. 2012, 55, 1526-1537). Biological activity of representative compounds of the disclosure are described in Table 5.

[8] = biological target: YES1 (Homo sapiens (Human), UniProt P07947); assay: as above; details: read-out: IC50 Activity Levels Against SRC Family Kinases: YES1
Description: as §6, §7, §8, §9, §10, §11

[9] = biological target: T1, MEK5; assay: Kinase binding assay CaPBA; details: read-out: IC50 Activity Levels Against FYN isoforms, YES1 and MEK5: MEK5
Excerpt: (§12) 4. Kinase Binding Assay CaPBA:

[10] = biological target: FYN isoform (b) (Homo sapiens (Human), UniProt P06241); assay: Kinase binding assay CaPBA; details: read-out: IC50 Activity Levels Against FYN isoforms, YES1 and MEK5: FYN isoform (b)
Excerpt: as §12

[11] = biological target: FYN isoform (a) (Homo sapiens (Human), UniProt P06241); assay: Kinase binding assay CaPBA; details: read-out: IC50 Activity Levels Against FYN isoforms, YES1 and MEK5: FYN isoform (a)
Excerpt: as §12

[12] = Table 12, read-out: Kd Values Against MEK Kinases Isoforms: MEK5

T1 sequence (Q13163 whole entry): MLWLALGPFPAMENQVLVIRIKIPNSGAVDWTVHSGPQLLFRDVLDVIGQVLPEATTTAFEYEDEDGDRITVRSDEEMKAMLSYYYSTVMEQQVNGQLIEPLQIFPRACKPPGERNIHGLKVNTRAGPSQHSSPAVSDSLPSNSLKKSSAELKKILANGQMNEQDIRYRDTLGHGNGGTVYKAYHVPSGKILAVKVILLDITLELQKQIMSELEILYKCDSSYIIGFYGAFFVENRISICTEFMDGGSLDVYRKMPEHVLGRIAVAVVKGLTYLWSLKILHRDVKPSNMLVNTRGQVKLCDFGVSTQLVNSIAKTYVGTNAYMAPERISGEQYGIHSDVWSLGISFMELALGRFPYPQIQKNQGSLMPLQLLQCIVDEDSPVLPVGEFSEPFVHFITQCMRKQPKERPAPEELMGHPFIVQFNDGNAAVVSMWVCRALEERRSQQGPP
MEK1, sequence (Q02750 whole entry, canonical isoform): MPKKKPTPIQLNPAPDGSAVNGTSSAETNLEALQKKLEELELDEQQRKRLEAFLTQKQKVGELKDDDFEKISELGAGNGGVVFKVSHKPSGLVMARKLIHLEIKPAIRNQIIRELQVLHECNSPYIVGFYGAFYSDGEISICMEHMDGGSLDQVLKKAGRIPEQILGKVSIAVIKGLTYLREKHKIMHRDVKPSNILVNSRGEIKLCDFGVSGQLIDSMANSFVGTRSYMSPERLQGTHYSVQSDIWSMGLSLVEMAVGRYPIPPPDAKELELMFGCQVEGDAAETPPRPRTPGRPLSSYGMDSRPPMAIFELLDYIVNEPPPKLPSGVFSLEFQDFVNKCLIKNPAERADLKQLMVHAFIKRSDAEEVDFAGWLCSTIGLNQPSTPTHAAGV
HER4, sequence (Q15303 26-1308): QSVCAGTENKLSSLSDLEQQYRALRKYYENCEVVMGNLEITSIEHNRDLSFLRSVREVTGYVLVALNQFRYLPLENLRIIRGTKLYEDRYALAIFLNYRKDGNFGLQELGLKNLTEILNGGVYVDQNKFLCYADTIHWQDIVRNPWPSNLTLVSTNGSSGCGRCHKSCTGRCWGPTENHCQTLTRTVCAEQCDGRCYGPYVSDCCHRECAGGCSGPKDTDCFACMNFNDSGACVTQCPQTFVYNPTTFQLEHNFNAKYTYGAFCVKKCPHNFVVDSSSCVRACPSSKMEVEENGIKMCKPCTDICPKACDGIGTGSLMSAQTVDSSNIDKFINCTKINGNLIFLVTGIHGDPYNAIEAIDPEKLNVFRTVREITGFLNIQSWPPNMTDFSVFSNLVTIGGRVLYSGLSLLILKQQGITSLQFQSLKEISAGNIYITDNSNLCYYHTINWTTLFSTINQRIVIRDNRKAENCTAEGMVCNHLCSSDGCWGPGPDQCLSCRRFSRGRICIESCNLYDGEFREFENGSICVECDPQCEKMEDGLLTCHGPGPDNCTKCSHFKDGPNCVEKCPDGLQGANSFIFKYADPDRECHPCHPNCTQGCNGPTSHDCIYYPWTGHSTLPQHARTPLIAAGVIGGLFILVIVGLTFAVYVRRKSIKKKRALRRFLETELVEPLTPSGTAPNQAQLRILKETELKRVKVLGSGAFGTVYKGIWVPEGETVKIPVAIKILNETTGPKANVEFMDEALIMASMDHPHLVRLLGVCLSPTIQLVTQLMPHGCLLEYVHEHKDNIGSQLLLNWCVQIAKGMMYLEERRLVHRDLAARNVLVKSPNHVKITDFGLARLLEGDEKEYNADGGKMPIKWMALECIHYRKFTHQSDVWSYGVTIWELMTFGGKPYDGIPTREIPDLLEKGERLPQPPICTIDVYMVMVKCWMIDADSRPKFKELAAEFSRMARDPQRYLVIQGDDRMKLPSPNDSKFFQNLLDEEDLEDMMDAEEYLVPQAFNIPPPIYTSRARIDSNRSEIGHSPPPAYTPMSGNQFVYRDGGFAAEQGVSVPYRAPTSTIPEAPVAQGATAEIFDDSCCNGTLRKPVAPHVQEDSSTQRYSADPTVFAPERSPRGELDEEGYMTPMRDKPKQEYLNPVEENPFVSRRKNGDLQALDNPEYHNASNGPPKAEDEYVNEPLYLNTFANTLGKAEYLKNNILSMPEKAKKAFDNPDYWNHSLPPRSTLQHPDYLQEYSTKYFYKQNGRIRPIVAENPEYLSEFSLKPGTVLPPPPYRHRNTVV
KDR/VEGFR2, sequence (P35968 20-1356): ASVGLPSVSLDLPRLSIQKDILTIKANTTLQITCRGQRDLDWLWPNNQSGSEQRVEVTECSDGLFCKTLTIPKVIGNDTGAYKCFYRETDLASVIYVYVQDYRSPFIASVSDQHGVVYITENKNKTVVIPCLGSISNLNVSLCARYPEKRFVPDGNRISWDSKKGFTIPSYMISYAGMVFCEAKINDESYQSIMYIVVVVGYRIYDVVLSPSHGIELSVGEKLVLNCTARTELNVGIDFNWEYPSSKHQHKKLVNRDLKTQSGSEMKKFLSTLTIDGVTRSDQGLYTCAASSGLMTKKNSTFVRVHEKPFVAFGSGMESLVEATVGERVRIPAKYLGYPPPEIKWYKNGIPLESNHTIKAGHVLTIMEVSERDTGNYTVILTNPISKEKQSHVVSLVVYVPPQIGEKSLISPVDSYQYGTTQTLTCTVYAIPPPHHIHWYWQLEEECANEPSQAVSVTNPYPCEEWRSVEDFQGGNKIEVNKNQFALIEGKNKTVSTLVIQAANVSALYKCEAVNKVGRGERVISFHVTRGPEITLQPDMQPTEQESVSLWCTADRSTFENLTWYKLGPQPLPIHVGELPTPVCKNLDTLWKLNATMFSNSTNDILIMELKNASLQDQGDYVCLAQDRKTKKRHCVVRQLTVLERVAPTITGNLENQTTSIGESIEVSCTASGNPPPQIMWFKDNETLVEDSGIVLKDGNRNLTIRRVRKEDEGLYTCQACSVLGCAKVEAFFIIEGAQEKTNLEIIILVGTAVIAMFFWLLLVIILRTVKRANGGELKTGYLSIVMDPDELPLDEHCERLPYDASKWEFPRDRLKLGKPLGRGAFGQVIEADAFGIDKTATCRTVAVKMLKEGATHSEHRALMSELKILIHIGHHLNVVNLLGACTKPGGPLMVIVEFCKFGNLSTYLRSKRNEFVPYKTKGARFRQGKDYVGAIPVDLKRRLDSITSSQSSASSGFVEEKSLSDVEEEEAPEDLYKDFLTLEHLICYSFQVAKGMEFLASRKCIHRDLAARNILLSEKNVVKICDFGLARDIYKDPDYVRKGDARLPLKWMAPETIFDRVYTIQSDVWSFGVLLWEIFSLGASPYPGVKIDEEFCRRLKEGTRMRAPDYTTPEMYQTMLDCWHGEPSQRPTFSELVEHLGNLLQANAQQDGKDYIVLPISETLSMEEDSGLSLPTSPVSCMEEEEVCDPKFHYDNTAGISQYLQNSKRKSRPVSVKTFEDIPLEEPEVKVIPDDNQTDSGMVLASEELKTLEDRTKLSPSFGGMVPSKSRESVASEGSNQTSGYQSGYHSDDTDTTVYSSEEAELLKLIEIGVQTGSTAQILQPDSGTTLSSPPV
RET, sequence (P07949 29-1114): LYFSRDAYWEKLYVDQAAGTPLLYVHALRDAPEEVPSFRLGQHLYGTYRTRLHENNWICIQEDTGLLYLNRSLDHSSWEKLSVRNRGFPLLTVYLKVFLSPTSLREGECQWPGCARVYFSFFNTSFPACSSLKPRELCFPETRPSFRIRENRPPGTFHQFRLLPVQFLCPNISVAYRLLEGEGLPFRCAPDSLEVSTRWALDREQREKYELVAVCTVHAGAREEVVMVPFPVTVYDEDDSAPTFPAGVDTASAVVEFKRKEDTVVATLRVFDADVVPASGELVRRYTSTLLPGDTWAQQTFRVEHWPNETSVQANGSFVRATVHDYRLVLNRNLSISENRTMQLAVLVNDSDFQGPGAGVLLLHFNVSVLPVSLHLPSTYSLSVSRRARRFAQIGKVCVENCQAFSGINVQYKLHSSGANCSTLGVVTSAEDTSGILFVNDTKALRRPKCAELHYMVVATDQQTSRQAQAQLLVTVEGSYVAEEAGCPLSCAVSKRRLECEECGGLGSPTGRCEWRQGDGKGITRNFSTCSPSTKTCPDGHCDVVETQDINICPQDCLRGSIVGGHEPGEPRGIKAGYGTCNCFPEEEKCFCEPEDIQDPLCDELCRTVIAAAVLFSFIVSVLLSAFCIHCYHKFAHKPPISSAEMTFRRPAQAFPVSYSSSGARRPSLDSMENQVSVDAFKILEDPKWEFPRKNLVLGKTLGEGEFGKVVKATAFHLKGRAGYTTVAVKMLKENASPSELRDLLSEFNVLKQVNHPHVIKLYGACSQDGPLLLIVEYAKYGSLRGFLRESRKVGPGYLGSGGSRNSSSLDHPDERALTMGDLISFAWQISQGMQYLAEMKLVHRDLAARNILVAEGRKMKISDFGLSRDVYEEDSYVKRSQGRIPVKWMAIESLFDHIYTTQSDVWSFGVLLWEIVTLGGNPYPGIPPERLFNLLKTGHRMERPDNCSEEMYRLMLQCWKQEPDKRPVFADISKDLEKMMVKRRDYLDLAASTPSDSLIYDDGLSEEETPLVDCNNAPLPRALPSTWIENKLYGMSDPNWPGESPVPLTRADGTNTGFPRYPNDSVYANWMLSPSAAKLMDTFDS
YES1, sequence (P07947 whole entry): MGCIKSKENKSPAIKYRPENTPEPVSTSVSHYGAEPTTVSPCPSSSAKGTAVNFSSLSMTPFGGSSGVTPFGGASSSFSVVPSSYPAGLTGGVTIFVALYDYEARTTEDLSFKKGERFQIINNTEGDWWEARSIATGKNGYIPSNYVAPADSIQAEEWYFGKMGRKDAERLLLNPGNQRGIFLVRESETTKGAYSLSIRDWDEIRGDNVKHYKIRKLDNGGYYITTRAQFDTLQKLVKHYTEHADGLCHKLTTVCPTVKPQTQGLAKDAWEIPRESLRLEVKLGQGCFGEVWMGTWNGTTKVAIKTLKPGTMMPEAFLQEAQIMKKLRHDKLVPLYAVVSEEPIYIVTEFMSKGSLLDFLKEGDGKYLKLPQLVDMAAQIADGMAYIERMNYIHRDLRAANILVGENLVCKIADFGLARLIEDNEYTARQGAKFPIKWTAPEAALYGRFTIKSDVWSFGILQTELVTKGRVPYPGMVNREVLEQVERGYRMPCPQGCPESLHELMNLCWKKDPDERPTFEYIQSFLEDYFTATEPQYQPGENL

| Compound | Kd [1, 12] | Kd [2] | Kd [3] | IC50 [4] | IC50 [5] | IC50 [6] | IC50 [7] | IC50 [8] | IC50 [9] | IC50 [10] | IC50 [11] | Kd ([1]; Table 9, read-out: Kd Values Against Representative MEK5 Kinase: MEK5) |
| --- | --- | --- | --- | --- | --- | --- | --- | --- | --- | --- | --- | --- |
| Nc1ncnc2c1c(-c1ccc(Oc3ccccc3)cc1)nn2C[C@@H]1SSC[C@@H]1O [46 A.] | < 5 nM | 100 to 999 nM | 100 to 999 nM | 1000 to 10000 nM | 1000 to 10000 nM | 100 to 999 nM | – | – | – | – | – | – |
| Nc1ncnc2c1c(-c1ccc(Oc3ccccc3)cc1)nn2C[C@H]1SSC[C@@H]1O [43 B.] | < 5 nM | 100 to 999 nM | 5 to 99 nM | – | – | – | 100 to 999 nM | 100 to 999 nM | 1000 to 10000 nM | 5 to 99 nM | 5 to 99 nM | – |
| Nc1ncnc2c1c(-c1ccc(Oc3ccccc3)cc1)nn2C[C@@H]1SSC[C@H]1O [43 A.] | – | 1000 to 10000 nM | – | – | – | – | – | – | – | 5 to 99 nM | 5 to 99 nM | < 5 nM |
| Nc1ncnc2c1c(-c1ccc(Oc3ccccc3)cc1)nn2C[C@H]1SSC[C@H]1O [46 B.] | < 5 nM | 100 to 999 nM | 5 to 99 nM | 5 to 99 nM | 1000 to 10000 nM | 1000 to 10000 nM | 100 to 999 nM | 5 to 99 nM | 1000 to 10000 nM | – | – | – |
